Measurements as given in patent US9850283B2, “Macrocyclic inhibitors of the PD-1/PD-L1 and CD80(B7-1)/PD-L1 protein/protein interactions” (BRISTOL-MYERS SQUIBB COMPANY, priority 2013, dated 2017).
Read-outs that look alike come from different tables or passages of the source. Starred links: 1 amine or outer side, 2 acyl side, 3 side chain; linkers in the order of their positions; H or OH if unused. Positions of bridges follow the written chain, without caps; N, C: chain ends. Non-standard residues stand in square brackets, D forms with d. Residues, ends and D or L forms follow the SMILES beside them. ξ: configuration not given here. Phe(2,4-Cl2) = N[C@@H](Cc1ccc(Cl)cc1Cl)C(=O)O; X11 = CC1(C)CC[C@H](C(=O)[*:2])N1[*:1]; ξPro(4R-OH) = O=C(O)C1C[C@@H](O)CN1; Hyp = O=C(O)[C@@H]1C[C@@H](O)CN1; NMeF = CN[C@@H](Cc1ccccc1)C(=O)O; dNMeNle = CCCC[C@@H](NC)C(=O)O; NMeNle = CCCC[C@H](NC)C(=O)O; NMeA = CN[C@@H](C)C(=O)O; Orn = NCCC[C@H](N)C(=O)O; ξPip = O=C(O)C1CCCCN1; ξC = NC(CS)C(=O)O; Sar = CNCC(=O)O

Columns and labels:
[1] = target: T1, Human PD-L1/PD-1 (Homo sapiens, UniProt Q9NZQ7); test: HTRF PD-1-Ig/PD-L1-His binding assay (human PD-L1)
T1 construct: made in house; host or cells: HEK293T
T1 sequence (Q9NZQ7 with tags, fused parts or gaps): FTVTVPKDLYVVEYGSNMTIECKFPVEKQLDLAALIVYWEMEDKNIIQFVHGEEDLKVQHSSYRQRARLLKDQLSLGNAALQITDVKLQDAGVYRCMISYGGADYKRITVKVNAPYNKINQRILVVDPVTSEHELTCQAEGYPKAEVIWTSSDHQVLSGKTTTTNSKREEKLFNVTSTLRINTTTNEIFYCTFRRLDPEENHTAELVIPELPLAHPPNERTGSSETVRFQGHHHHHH
How it was run: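 Readout: time-resolved FRET between Eu cryptate-labeled anti-Ig (1 nM final) and APC-labeled anti-His (20 nM final) antibodies. These detect interaction of Fc-fused PD-1 with His-tagged human PD-L1 in dPBS containing 0.1% BSA and 0.05% Tween-20.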

[2] = target: T2, LK35.2-hPD-L1 cells / PE-labeled PD-1-Ig (Homo sapiens, UniProt Q9NZQ7); test: LK35.2-hPD-L1 cell binding high-content screening assay; format: cell-based
T2 construct: expressed in transfected cells; host or cells: LK35.2 mouse B cell line
T2 sequence (Q9NZQ7 19-290): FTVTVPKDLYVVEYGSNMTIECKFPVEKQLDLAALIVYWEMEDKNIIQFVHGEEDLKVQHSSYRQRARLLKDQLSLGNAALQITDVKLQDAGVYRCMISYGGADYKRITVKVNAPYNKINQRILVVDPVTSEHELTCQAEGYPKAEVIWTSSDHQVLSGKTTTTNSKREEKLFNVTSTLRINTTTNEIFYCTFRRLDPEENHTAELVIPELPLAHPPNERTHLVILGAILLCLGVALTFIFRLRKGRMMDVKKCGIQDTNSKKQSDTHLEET
How it was run: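 Compound effect on PD-1/PD-L1 binding is measured by imaging cell-associated phycoerythrin signal. Human PD-1-Ig (PE on Ig tag, 1 nM final) is applied with compound to a murine B cell line overexpressing human PD-L1 for 1 h at 37 °C in serum-containing RPMI.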

[3] = cluster symbol, read-out: HTRF IC50 cluster
[4] = cluster symbol, cell line of CBA not given (LK35.2-hPD-L1 or 293T-hPD-L1), read-out: CBA IC50 cluster
[5] = cell binding assay, cell line not given, cluster symbol, read-out: CBA IC50 cluster

| Compound | IC50 [1, 3] [nM] | IC50 [2, 4] [nM] | also measured |
| --- | --- | --- | --- |
| CCCC[C@@H]1C(=O)N(C)[C@H](CCCC)C(=O)N[C@@H](CCCNC(=N)N)C(=O)N[C@@H](C(=O)NCC(N)=O)CSCC(=O)N[C@@H](Cc2ccc(O)cc2)C(=O)N2CCCCC2C(=O)N[C@H](CCC(=O)O)C(=O)N2CCC[C@H]2C(=O)N[C@H](Cc2c[nH]cn2)C(=O)N[C@@H](CCCN)C(=O)N2C[C@H](O)CC2C(=O)N[C@H](Cc2c[nH]c3ccccc23)C(=O)N[C@@H](CO)C(=O)N[C@@H](Cc2c[nH]c3ccccc23)C(=O)N1C (stereo partly drawn) [Example 1217] ({CH2CO}-Y[ξPip][dE]P[dH][Orn][ξPro(4R-OH)][dW]SW[dNMeNle][dNMeNle]R[dC]G-NH2; thioether N-14) | 6.76 to 30.3 | 4.78 to 72.9 |  |
| CCCC[C@H]1C(=O)N(C)[C@@H](CCCC)C(=O)N[C@@H](CC(C)C)C(=O)N[C@H](C(=O)NCC(N)=O)CSCC(=O)N[C@@H](Cc2ccc(O)cc2)C(=O)N(C)[C@@H](C)C(=O)N[C@@H](CC(N)=O)C(=O)N2CCC[C@H]2C(=O)N[C@@H](Cc2c[nH]cn2)C(=O)N[C@@H](CCC(N)=O)C(=O)N2C[C@H](O)C[C@H]2C(=O)N[C@@H](Cc2c[nH]c3ccccc23)C(=O)N[C@@H](CO)C(=O)N[C@@H](Cc2c[nH]c3ccccc23)C(=O)N1C [Example 5075] ({CH2CO}-Y[NMeA]NPHQ[Hyp]WSW[NMeNle][NMeNle]LCG-NH2; thioether N-14) | 0.385 to 6.74 |  | IC50 [2, 5]: 0.158 to 4.71 nM |
| CCCC[C@H]1C(=O)N(C)CC(=O)N[C@@H](CC(=O)O)C(=O)N[C@@H](C(C)C)C(=O)N(C)[C@@H](Cc2ccccc2)C(=O)N[C@@H](Cc2ccc(O)cc2)C(=O)N(C)CC(=O)N[C@@H](Cc2ccc(Cl)cc2Cl)C(=O)N[C@@H](Cc2ccc(O)cc2)C(=O)N[C@@H](CC(C)C)C(=O)N[C@H](C(=O)NCC(N)=O)CSCC(=O)N[C@@H](Cc2ccccc2)C(=O)N(C)[C@@H](Cc2ccccc2)C(=O)N1C [Example 3549] ({CH2CO}-F[NMeF][NMeNle][Sar]DV[NMeF]Y[Sar][Phe(2,4-Cl2)]YLCG-NH2; thioether N-13) |  |  | IC50 ([1]; value given instead of cluster, read-out: HTRF IC50 value): 272 nM; IC50 ([2]; cell binding assay, cell line not given, value given instead of cluster, read-out: CBA IC50 value): 728 nM |
| CCCC[C@H]1C(=O)N(C)CC(=O)N[C@@H](CC(=O)O)C(=O)N[C@@H](C(C)C)C(=O)N(C)[C@@H](Cc2ccccc2)C(=O)N[C@@H](Cc2ccc(O)cc2)C(=O)N2[C@H](CCC2(C)C)C(=O)N[C@@H](Cc2c[nH]c3ccccc23)C(=O)N[C@@H](Cc2ccc(O)cc2)C(=O)N[C@@H](CC(C)C)C(=O)N[C@H](C(=O)NCC(N)=O)CSCC(=O)N[C@@H](Cc2ccccc2)C(=O)N(C)[C@@H](Cc2ccccc2)C(=O)N1C [Example 3184] ({CH2CO}-F[NMeF][NMeNle][Sar]DV[NMeF]Y[X11]WYLCG-NH2; thioether N-13) | > 30.5 | > 74.3 |  |
| CCCC[C@H]1C(=O)N(C)[C@@H](CCCC)C(=O)N[C@@H](CCCN)C(=O)N[C@H](C(=O)NCC(N)=O)CSCC(=O)N[C@@H](Cc2ccc(O)cc2)C(=O)N2C[C@H](N)C[C@H]2C(=O)N[C@@H](CC(N)=O)C(=O)N2CCC[C@H]2C(=O)N[C@@H](Cc2cnc[nH]2)C(=O)N[C@@H](CC(C)C)C(=O)N2C[C@H](O)C[C@H]2C(=O)N[C@@H](Cc2c[nH]c3ccccc23)C(=O)N[C@@H](CO)C(=O)N[C@@H](Cc2c[nH]c3ccccc23)C(=O)N1C [Example 1192] |  |  | IC50 ([1]; read-out: HTRF IC50 value): 6.74 nM; IC50 ([2]; cell line of CBA not given (LK35.2-hPD-L1 or 293T-hPD-L1), read-out: CBA IC50 value): 21.5 nM |

Now from value to compound, other results behind:

| IC50 [1, 3] [nM] | IC50 [2, 4] [nM] | Compound | also measured |
| --- | --- | --- | --- |
| 6.76 to 30.3 |  | CCCC[C@H]1C(=O)N(C)[C@@H](CCCC)C(=O)N[C@@H](CCCNC(=N)N)C(=O)NC(C(=O)NCC(N)=O)CSCC(=O)N[C@@H](Cc2ccc(O)cc2)C(=O)N(C)[C@@H](C)C(=O)N[C@@H](CC(N)=O)C(=O)N2CCC[C@H]2C(=O)N[C@@H](CC(N)=O)C(=O)N[C@@H](CC(C)C)C(=O)N2CCC[C@H]2C(=O)N[C@@H](Cc2c[nH]c3ccccc23)C(=O)N[C@@H](CO)C(=O)N[C@@H](Cc2c[nH]c3ccccc23)C(=O)N1C (some centres unmarked) [Example 9059] ({CH2CO}-Y[NMeA]NPNLPWSW[NMeNle][NMeNle]R[ξC]G-NH2; thioether N-14) | IC50 [2, 5]: 4.78 to 72.9 nM |
| 6.76 to 30.3 | 4.78 to 72.9 | CCCC[C@H]1C(=O)N(C)CC(=O)N[C@@H](CC(=O)O)C(=O)N[C@@H]([C@@H](C)OC)C(=O)N(C)[C@@H](Cc2ccccc2)C(=O)N[C@@H](Cc2ccc(O)cc2)C(=O)N(C)CC(=O)N[C@@H](Cc2c[nH]c3ccccc23)C(=O)N[C@@H](Cc2ccc(O)cc2)C(=O)N[C@@H](CC(C)C)C(=O)N[C@H](C(=O)NCC(N)=O)CSCC(=O)N[C@@H](Cc2ccccc2)C(=O)N(C)[C@@H](Cc2ccccc2)C(=O)N1C [Example 3157] ({CH2CO}-F[NMeF][NMeNle][Sar]DT(Me)[NMeF]Y[Sar]WYLCG-NH2; thioether N-13) |  |
